Data reported in US7268118B2, “Thymosin β4 compositions” (United States of America as represented by The Secretary of …, priority 1998, dated 2007).

Experiments:
[1] = test system: de-epithelialized Rat corneas; test: In vivo corneal re-epithelialization
Method: To determine the effect of Tβ4 on corneal re-epithelialization in vivo, Rat corneas were de-epithelialized and treated with Tβ4. Filters were soaked in heptanol, applied to the eye for 30 seconds, and then the epithelium was scraped. Various concentration of Tβ4 in saline was applied to the eye and at 24 hours the rats were sacrificed. The eyes were fixed, sectioned and the degree of corneal epithelial migration (as measured in pixels) was determined using a microscope with an internal caliper by a masked observer.

Corneal Epithelial Cell = test: Corneal epithelial cell migration assay in Boyden chamber; format: cell-based
Method: Corneal Epithelial Cell migration assays were carried out in Boyden chamber using 12 μm pore polyester membranes (Poretics, Livermore, Calif.) coated with a 0.1 mg/ml solution of collagen IV in dH2O (Trevigen, Gaithersburg, Md.). Filters were then dried at least 1 h. Cells were cultured and resuspended in Eagle's Minimal Essential Medium with 0.05 mM Ca^2+. The bottom chamber was loaded with EMEM containing 0.01, 0.1, 10, 100, and 1000 ng/ml of synthetic Tβ4. Conditioned medium from primary dermal fibroblasts and/or keratinocyte growth factor was added to several wells as a positive control. Cells were added to the upper chamber at a concentration of 50,000 cells per well. Chambers were incubated at 35 C/7% CO2 for 4-5 hours and the filters were then fixed and stained using Diff-Quik (Baxter Healthcare Corporation, McGraw Park, Ill.). The cells that migrated through the filter were quantitated by counting the center of each well at 10× using an Olympus CK2 microscope. Each condition was assayed in triplicate wells and each experiment was repeated four times with different preparations of cells. […] Migration was enhanced 2-3 fold over migration in the presence of media alone (FIG. 7) with the highest level of migration seen at 100 ng/ml of Tβ4.

primary keratinocytes = test: Keratinocyte migration assay in Boyden chamber; format: cell-based, mice
Method: Primary keratinocytes were prepared from either Balb/c or CD-1 newborn mice as described previously (Dlugosz et al., 1995). Cells were plated in calcium- and magnesium-free Eagle's Minimal Essential Medium (EMEM) containing 8% fetal calf serum treated with 8% Chelex (Bio-Rad Laboratories, Hercules, Calif.), 20 units/ml penicillin-streptomycin, and the calcium concentration was adjusted to 0.25 mM. The following day, cultures were washed with calcium- and magnesium-free phosphate buffered saline, treated briefly with Trypsin (Life Technologies, Gaithersburg, Md.), washed with culture medium and resuspended in EMEM containing 0.05 mM calcium. Cells were used immediately in migration assays.
Keratinocyte migration assays were carried out in Boyden chamber using 12 μm pore polyester membranes (Poretics, Livermore, Calif.) coated with a 0.1 mg/ml solution of collagen IV in dH2O (Trevigen, Gaithersburg, Md.). Filters were then dried at least 1 h. Cells were harvested using Versene or Trypsin (Life Technologies, Gaithersburg, Md.) and resuspended in Eagle's minimal essential medium with 0.05 mM Ca^2+. The bottom chamber was loaded with EMEM containing 0.01, 0.1, 10, 100, and 1000 ng/ml of synthetic Tβ4. […] The cells that migrated through the filter were quantitated by counting the center of each well at 10× using an Olympus CK2 microscope. […]

[2] = test system: wounds of steroid treated rats; test: Impaired healing model (hydrocortisone treated rats); format: in vivo, rat
Method: Steroid treatment reduces the rate of wound repair in mammals. Rats treated with steroids such as hydrocortisone serve as a model of impaired wound healing due to the delay observed in wound closure. Animals were injected intramuscularly everyday with hydrocortisone.

[3] = test system: full thickness cutaneous rat wound; test: Full thickness punch biopsy wound healing in rats; format: in vivo; details: for decrease in wound width relative to saline treated controls: intraperitoneal 60 μg in 300 μl
Method: Full thickness 8 mm punch biopsy wounds were made on the dorsal surface of rats as previously reported (Bhartiya et al., J. Cell. Physiol. 150:312, 1992; Sihhu et al., J. Cell. Physiol. 169:108, 1996) and Tβ4 was given topically at the time of wounding (5 μg in 50 μl) and again after 48 hours. Controls for the topical treatment received identical amounts of saline at the time of wounding and at 48 hours. Additional rats received intraperitoneal injections at the time of wounding (60 μg in 300 μl) and again every other day (e.g., days 0, 2, 4, and 6). Controls for these animals received identical amounts of saline intra-peritoneally on the same injection schedule. On days 4 and 7 post-wounding, measurements were made on the wound size. At days 8 and 9 post-wounding, tissue was collected and fixed in 10% buffered formalin. The samples were sectioned and stained with H&E and Masson's Trichrome (American Histolabs, Gaithersburg, Md.).
Histological sections were used to measure the re-epithelialization and the contraction of the wound using an ocular micrometer. Epidermal migration was determined by measuring the lengths of the tongues of epithelium migrating form either side of the wound over the wound bed from the zone of proliferation at the margin of the uninjured and wounded skin. Epidermal thickness was also measured beginning at the junction of the uninjured and proliferating epidermis. The thickness was measured vertically from the basement membrane to the most superficial layer of the migrating epidermis at every 200 microns. The mean epidermal thickness of each migrating tongue of epidermis was then computed from each wound. Vessel counts were performed by first identifying vascular spaces by their endothelial lining. All such vessels in the wound bed were counted including those at the junction of the dermis and the subcutis, since angiogenesis into the wounds occurs to a great extent from these vessels. The numbers were averaged into vessel counts per 10 high powered fields (40×).
The effect of Tβ4 on wound healing was studied in a full thickness cutaneous rat wound model. […] This model allowed measurement of two parameters: the re-epithelialization (gap) and the contraction (width) of the wound.

[4] = intraperitoneal injection, day 4
[5] = intraperitoneal injection, day 7

thymosin β4 [Tβ4]
re-epithelialization of the cornea over untreated control ([1]; about 1 to 25 μg of Tβ4 in saline applied to the eye, 24 hours): 2 fold
inflammation of treated eyes compared to non-treated corneas ([1]; rat, in vivo): reduced inflammation
corneal epithelial cell migration over media alone (Corneal Epithelial Cell; 4-5 hours of exposure): 2-3 fold
concentration with the highest level of migration (Corneal Epithelial Cell; tested 0.01-1000 ng/ml): 100 ng/mL
migration at the maximal responding dose versus positive control (primary keratinocytes): exceeded the positive control
keratinocyte migration over media alone (primary keratinocytes; 4-5 hours, filters coated with collagen IV): 2-3 fold
decrease in gap size [2, 4]: 28%
decrease in wound width [2, 4]: 14%
decrease in gap size [2, 5]: 26%
decrease in wound width [2, 5]: 10%
level of healing in steroid treated rats ([2]; topical or intraperitoneal): significant increase in the level of healing
gap or width closure compared to saline treatment ([2]; topical, day 4, N=3): ≤ 7%
decrease in gap compared to saline treatment ([2]; topical, day 7): 39%
decrease in wound width ([2]; topical, day 7): 23%
increase in the number of vessels in treated wounds ([3]; 7 day wounds): about 2 fold
decrease in wound width as compared to the saline controls ([3]; FIG. 2, topical 5 μg in 50 μl, as early as 4 days after wounding, continued until day 7): 15%
Epidermal Migration ([3]; I.P.): 3168.3 ± 38.4 μm
Epidermal Thickness ([3]; I.P.): 135.0 ± 11.7 μm
Vessels/10 HPF ([3]; I.P.): 2415.0 ± 24.3
Epidermal Migration ([3]; Topical): 3668.7 ± 56.6 μm
Epidermal Thickness ([3]; Topical): 142.3 ± 19.8 μm
Vessels/10 HPF ([3]; Topical): 2186.0 ± 11.8
re-epithelialization of the wound (histology) ([3]; day 7, intraperitoneal 60 μg/300 μl on alternate days): Increased re-epithelialization
neovascularization of the dermis (histology) ([3]; day 7, intraperitoneal and topical): significant new capillaries
re-epithelialization of the wound (histology) ([3]; day 7, topical 5 μg/50 μl): complete reepithelialization
thickness of the migrating epidermis versus control ([3]; either Tβ4 treatment (I.P., topical)): no difference
effect on wound healing at lower dose ([3]; intraperitoneal 6 μg in 300 μl): no effect
effect on wound healing at lower dose ([3]; intraperitoneal 30 μg in 300 μl): reduced
decrease in wound width relative to saline treated controls ([3]; day 4): 18%
decrease in wound width relative to saline treated controls ([3]; day 7): 11%
decrease in gap size relative to saline treated controls ([3]; intraperitoneal, 4th day post wounding): 42%
migration of epidermal tongues as compared to controls ([3]; intraperitoneally treated wounds): statistically significant increase
number of macrophages in the wounds ([3]; rat, in vivo): No increases
effect on wound healing at lower dose ([3]; topical 0.5 μg in 50 μl): no effect
effect on wound healing at lower dose ([3]; topical 2.5 μg in 50 μl): reduced
wound healing as compared to untreated wounds ([3]; topical or intraperitoneal): significantly accelerated wound healing
increase in migration of epidermal tongues over the wound bed ([3]; topical treatment): 1.5 fold
decrease in gap length as compared to saline controls ([3]; topical, 4 days after wounding): 18%
decrease in width, treated versus controls ([3]; topical, time not stated (FIG. 2)): about 15%
decrease in gap, treated versus controls ([3]; topical, time not stated (FIG. 3)): about 15%
decrease in gap size ([3]; wounds treated for 7 days, route not stated): 62%
